# Patent publication US20130224286A1, “METHODS AND COMPOSITIONS FOR TREATING POX VIRUS INFECTIONS” (priority 2010, published 2013)
# Experiments:
# HaCaT cells [1] = assay: Toxicity on cells, MTT assay (Example 4, FIG. 3); format: cell-based, human; conditions: 1 day exposure
# Description: Toxicity of test compounds on uninfected cell monolayers was measured using the standard tetrazolium dye MTT.
# Test of various agents (BP: Benzoyl peroxide), at the indicated concentrations on triplicates of HaCaT cells in 96-well plates (FIG. 3).
# Toxicity on cells (left side of panel): Cell monolayers were exposed to agents as indicated, and 1 day later, cellular viability was analysed by a standard MTT assay (control OD was between 1.15 and 1.3).
# Vaccinia virus [2] = format: cell-based
# Vaccinia virus [3] = assay: Direct virocidal effect on Vaccinia virus, 24 h exposure, BS-C-1 plaque assay (Example 6, FIG. 5); format: cell-based; conditions: 50 μM, 24 h at 37° C.
# Description: Direct virocidal effect of various agents on Vaccinia virus (24 h exposure) Triplicates of Vaccinia virus in a 96-well plate were incubated with agents at 50 μM final concentration for 24 h at 37° C. After incubation, virus was diluted 1000-fold and quantified in a standard 24-well BS-C-1 plaque assay.
# The various agents used were as follows: BP: Benzoyl peroxide, D: Dicoumarol, DNCB: Dinitrochlorobenzene, DNFB: Dinitrofluorobenzene, K1: Vitamin K1, K2: Vitamin K2, Menadione (M is fresh, M* is Menadione kept at RT for 2 months), MBS: Menadione bisulfite and Control.
# Vaccinia virus WR = format: cell-based
# Molluscum contagiosum = assay: Treatment of a patient with Molluscum contagiosum lesions (topical painting); format: in vivo, human; conditions: 50 mM in DMSO painted on lesions, one to two times per day for 5 days, after 4 weeks
# Description: A patient, previously treated for Molluscum contagiosum infection with curettage, had two recurrences of Molluscum contagiosum. In each instance, a number of early lesions, which where in the elbow region or the lower jaw region respectively, were treated one to two times per day for 5 consecutive days. Treatment consisted of painting the lesions with a cotton stick, applying a solution of 50 mM Menadione dissolved in DMSO to the tip of the lesion. […] Concentrations of Menadione, its analogues and additional compounds used in this invention are as indicated below: […]
# HaCaT cells [4] = conditions: 25 μM, 1 day, MTT
SMILES,cell toxicity (HaCaT cells [1]),virus replication (Vaccinia virus [2]),reduction of virus infectivity (direct virocidal effect) (Vaccinia virus [3]) [%],virus progeny (Vaccinia virus WR),state of the skin after treatment of Molluscum contagiosum lesions (Molluscum contagiosum),effect on cell viability (HaCaT cells [4]) [%]
"O=C(OOC(=O)c1ccccc1)c1ccccc1 [BP, Benzoyl peroxide]",dose-dependent cell toxicity,inhibition of virus replication,43,,,
O=c1oc2ccccc2c(O)c1Cc1c(O)c2ccccc2oc1=O [Dicoumarol],dose-dependent cell toxicity,inhibition of virus replication,,,,
Oc1ccc(O)cc1 [Hydroquinone],no effect,no effect,,,,
CC1(S(=O)(=O)[O-])CC(=O)c2ccccc2C1=O.[Na+] (centres unmarked) [Menadione bisulfite],dose-dependent cell toxicity,inhibition of virus replication,95,reduced virus progeny in a dose-dependend manner,,
"CC1=CC(=O)c2ccccc2C1=O [Menadione, 2-methyl-1,4-naphthoquinone]",,,,reduced virus progeny in a dose-dependend manner,normal and without scar or discoloration,< 30
